{
  "source": "patent US20050064521A1",
  "about": "“In vitro assay for evaluation of angiogenic effects” (TUNGHAI UNIVERSITY, priority 2003, published 2005)",
  "key": {"endothelial cells [1]": {"test_system": "endothelial cells", "assay": "Collapse of the three-dimensional collagen fiber gel, trypan blue absorbance measurement", "type": "cell-based, Sprague-Dawley (SD) rats", "protocol": "(§1) Three-dimensional collagen fiber gel: The dry collagen fiber was extract from tails of Sprague-Dawley (SD) rats. The fiber was dissolved in 1 N acetic acid solution in the concentration of 1 g fiber/100 mL acetic acid. The dissolving was performed at 4° C. for 48 hours and followed by dialysis three times with 0.25 N acetic acid solution for 24 hours.\nEndothelial cells: SD rats weighting 100 to 200 g were anaesthetized with 0.1 mL/100 g body weight of barbiturate (Nembutal™, Abbott® Laboratories, USA) intraperitoneally. The thoracic aortas were cut and the connective tissues were removed. The vessels were further split into vessel rings thickening about 2 mm, and then cultured the rings in fresh Dulbecco's modified Eagle medium (DMEM) with 10% fetal bovine serum. The culture was maintained at 37° C. with 5% CO2 with changing the medium every two days. After cultured for 5 to 6 days, the cells were harvested. The endothelial cells suitable for the method according to the invention were the second to tenth passage cells. […]\nAfter culturing for 48 hours, the medium was removed and 0.075% trypan blue was added for staining the gels for 30 minutes. The upper solution was then removed and the absorbance of the solution was determined with a spectroscope. […]\nIt was evidenced that the degree of collapse of the three-dimensional collagen fiber gel is decreased with the addition of EGCg. That results support that the effect of a compound on angiogenesis can be determined by comparing the degrees of collapse of the collagen fiber gels of the models. For instance, the compound is determined to have a stimulatory effect on angiogenesis in case the collapse of the collagen fiber gel of the model added with the compound is increased in comparison with that added without the compound; in contrast, the compound is determined to have an inhibitory effect on angiogenesis in case the collapse of the collagen fiber gel of the model added with the compound is decreased in comparison with that added without the compound."}, "endothelial cells [2]": {"test_system": "endothelial cells", "assay": "Tube formation of endothelial cells in three-dimensional collagen fiber gel model, inverted microscopy", "type": "cell-based, Sprague-Dawley (SD) rats", "conditions": "cultured for 48 hours", "protocol": "as §1\nEndothelial cells: SD rats weighting 100 to 200 g were anaesthetized with 0.1 mL/100 g body weight of barbiturate (Nembutal™, Abbott® Laboratories, USA) intraperitoneally. The thoracic aortas were cut and the connective tissues were removed. The vessels were further split into vessel rings thickening about 2 mm, and then cultured the rings in fresh Dulbecco's modified Eagle medium (DMEM) with 10% fetal bovine serum. The culture was maintained at 37° C. with 5% CO2 with changing the medium every two days. After cultured for 5 to 6 days, the cells were harvested. The endothelial cells suitable for the method according to the invention were the second to tenth passage cells.\nModel: The endothelial cells (3×10^6) were mixed in the three-dimensional collagen fiber gel and cultured in DMEM containing 5% fetal bovine serum and 10 ng/mL VEGF and 3.08 ng/mL TPA at 37° C. After culturing the endothelial cells for 0, 6, 12, 24, 48, and 72 hours, the morphologies of the cell and gel were both observed with an inverted microscope. […]"}},
  "data": [
    {"smiles": "O=C(O[C@@H]1Cc2c(O)cc(O)cc2O[C@@H]1c1cc(O)c(O)c(O)c1)c1cc(O)c(O)c(O)c1", "note": "[EGCg, epigallocatechin gallate]", "values": [
      {"measurement": "inhibitory effect on angiogenesis (absorbance measurement)", "setting": "endothelial cells [1]; 25 μM EGCg", "value": "a little inhibitory effect on angiogenesis"},
      {"measurement": "collapse of the gel (absorbance measurement)", "setting": "endothelial cells [1]; 50 μM EGCg", "value": "nearly totally inhibited"},
      {"measurement": "collapse of the gel (absorbance measurement)", "setting": "endothelial cells [1]; 100 μM EGCg", "value": "nearly no collapse was observed"},
      {"measurement": "tubes and cell count versus control without EGCg", "setting": "endothelial cells [2]; 25 μM EGCg", "value": "less tubes and lower cell count"},
      {"measurement": "tubes", "setting": "endothelial cells [2]; 100 μM EGCg", "value": "almost no tubes"}
    ]}
  ]
}
